{"source": "the supplement of paper PMC10307832", "data": [{"compound": "CC1=C(C(=NN1)C)CC2=C(C3=C(S2)N(C(=O)N(C3=O)C)CC(C)C)C(=O)N4C[C@@H](CO4)O", "assay": "relative viability (nuclei count vs DMSO), 5 days (fraction); higher = more cells survive", "conditions": "0.25 µM", "summary_of_the_method": "(§1)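 Lung cancer cell lines in 1536-well plates were kept overnight at 37 °C, then pinned with five library-drug doses (not always all listed) spaced by √10 on vehicle-anchored plates. After 5 days without medium change, cells were fixed, permeabilised and Hoechst-stained in one step, imaged at 4×, and nuclei were counted with MetaXpress. Viability is treated-well nuclei divided by vehicle-well nuclei, taken as the median over plates. Plates passed only with control CV below 25% and at least one doubling.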", "values": [{"cell line": "NCI-H650", "relative viability": 1.06}, {"cell line": "PC-3 [JPC-3]", "relative viability": 1.07}]}, {"compound": "Cc1ccccc1C(C(=O)NC1CCCCC1)N(C(=O)Cn1ccnc1C)c1cccc(F)c1 [IDH-C35]", "assay": "relative viability (nuclei count vs DMSO), 5 days (fraction); higher = more cells survive", "conditions": "0.08 µM", "summary_of_the_method": "as §1", "values": [{"cell line": "NCI-H1395", "relative viability": 0.942}, {"cell line": "201T", "relative viability": 0.985}, {"cell line": "NCI-H1915", "relative viability": 0.993}, {"cell line": "HCC-827", "relative viability": 1.06}, {"cell line": "LXF-289", "relative viability": 1.02}, {"cell line": "NCI-H23", "relative viability": 1}, {"cell line": "NCI-H1299", "relative viability": 1.04}, {"cell line": "NCI-H647", "relative viability": 1.03}, {"cell line": "CAL-12T", "relative viability": 0.982}, {"cell line": "NCI-H1651", "relative viability": 0.939}, {"cell line": "EPLC-272H", "relative viability": 0.935}, {"cell line": "NCI-H2228", "relative viability": 0.87}, {"cell line": "NCI-H1792", "relative viability": 0.832}, {"cell line": "NCI-H1355", "relative viability": 0.978}, {"cell line": "NCI-H3122", "relative viability": 0.999}, {"cell line": "NCI-H1437", "relative viability": 1.04}, {"cell line": "NCI-H1755", "relative viability": 1.05}, {"cell line": "NCI-H2023", "relative viability": 0.981}, {"cell line": "HCC-15", "relative viability": 1}, {"cell line": "NCI-H1793", "relative viability": 0.961}, {"cell line": "PC-14", "relative viability": 1.04}, {"cell line": "EKVX", "relative viability": 0.991}, {"cell line": "LC-2-ad", "relative viability": 0.993}, {"cell line": "NCI-H1563", "relative viability": 0.972}, {"cell line": "NCI-H1944", "relative viability": 1.01}, {"cell line": "NCI-H1975", "relative viability": 0.968}, {"cell line": "RERF-LC-KJ", "relative viability": 0.962}, {"cell line": "ABC-1", "relative viability": 0.953}, {"cell line": "NCI-H358", "relative viability": 0.942}, {"cell line": "NCI-H650", "relative viability": 0.894}, {"cell line": "PC-3 [JPC-3]", "relative viability": 1.04}]}, {"compound": "Cc1ccccc1C(C(=O)NC1CCCCC1)N(C(=O)Cn1ccnc1C)c1cccc(F)c1 [IDH-C35]", "assay": "relative viability (nuclei count vs DMSO), 5 days (fraction); higher = more cells survive", "conditions": "0.253 µM", "summary_of_the_method": "as §1", "values": [{"cell line": "NCI-H1395", "relative viability": 0.866}, {"cell line": "201T", "relative viability": 0.983}, {"cell line": "NCI-H1915", "relative viability": 0.975}, {"cell line": "HCC-827", "relative viability": 0.934}, {"cell line": "LXF-289", "relative viability": 1}, {"cell line": "NCI-H23", "relative viability": 1.04}, {"cell line": "NCI-H1299", "relative viability": 0.952}, {"cell line": "NCI-H647", "relative viability": 0.94}, {"cell line": "CAL-12T", "relative viability": 1.04}, {"cell line": "NCI-H1651", "relative viability": 0.947}, {"cell line": "EPLC-272H", "relative viability": 1.04}, {"cell line": "NCI-H2228", "relative viability": 0.935}, {"cell line": "NCI-H1792", "relative viability": 0.862}, {"cell line": "NCI-H1355", "relative viability": 0.971}, {"cell line": "NCI-H3122", "relative viability": 1.02}, {"cell line": "NCI-H1437", "relative viability": 1.02}, {"cell line": "NCI-H1755", "relative viability": 0.961}, {"cell line": "NCI-H2023", "relative viability": 1.08}, {"cell line": "HCC-15", "relative viability": 0.97}, {"cell line": "NCI-H1793", "relative viability": 0.874}, {"cell line": "PC-14", "relative viability": 0.996}, {"cell line": "EKVX", "relative viability": 0.991}, {"cell line": "LC-2-ad", "relative viability": 1}, {"cell line": "NCI-H1563", "relative viability": 0.974}, {"cell line": "NCI-H1944", "relative viability": 1.07}, {"cell line": "NCI-H1975", "relative viability": 1.01}, {"cell line": "RERF-LC-KJ", "relative viability": 0.929}, {"cell line": "ABC-1", "relative viability": 0.938}, {"cell line": "NCI-H358", "relative viability": 0.984}, {"cell line": "NCI-H650", "relative viability": 1.2}, {"cell line": "PC-3 [JPC-3]", "relative viability": 1}]}, {"compound": "Cc1ccccc1C(C(=O)NC1CCCCC1)N(C(=O)Cn1ccnc1C)c1cccc(F)c1 [IDH-C35]", "assay": "relative viability (nuclei count vs DMSO), 5 days (fraction); higher = more cells survive", "conditions": "0.8 µM", "summary_of_the_method": "as §1", "values": [{"cell line": "NCI-H1395", "relative viability": 0.929}, {"cell line": "201T", "relative viability": 1.01}, {"cell line": "NCI-H1915", "relative viability": 1.01}, {"cell line": "HCC-827", "relative viability": 1.04}, {"cell line": "LXF-289", "relative viability": 1.02}, {"cell line": "NCI-H23", "relative viability": 0.95}, {"cell line": "NCI-H1299", "relative viability": 1.01}, {"cell line": "NCI-H647", "relative viability": 0.972}, {"cell line": "CAL-12T", "relative viability": 0.982}, {"cell line": "NCI-H1651", "relative viability": 0.921}, {"cell line": "EPLC-272H", "relative viability": 0.898}, {"cell line": "NCI-H2228", "relative viability": 0.968}, {"cell line": "NCI-H1792", "relative viability": 0.974}, {"cell line": "NCI-H1355", "relative viability": 0.961}, {"cell line": "NCI-H3122", "relative viability": 1.01}, {"cell line": "NCI-H1437", "relative viability": 0.993}, {"cell line": "NCI-H1755", "relative viability": 0.968}, {"cell line": "NCI-H2023", "relative viability": 0.959}, {"cell line": "HCC-15", "relative viability": 0.956}, {"cell line": "NCI-H1793", "relative viability": 0.844}, {"cell line": "PC-14", "relative viability": 1}, {"cell line": "EKVX", "relative viability": 0.922}, {"cell line": "LC-2-ad", "relative viability": 0.966}, {"cell line": "NCI-H1563", "relative viability": 1.01}, {"cell line": "NCI-H1944", "relative viability": 0.927}, {"cell line": "NCI-H1975", "relative viability": 0.986}, {"cell line": "RERF-LC-KJ", "relative viability": 1.03}, {"cell line": "ABC-1", "relative viability": 0.91}, {"cell line": "NCI-H358", "relative viability": 0.807}, {"cell line": "NCI-H650", "relative viability": 0.981}, {"cell line": "PC-3 [JPC-3]", "relative viability": 1.04}]}, {"compound": "Cc1ccccc1C(C(=O)NC1CCCCC1)N(C(=O)Cn1ccnc1C)c1cccc(F)c1 [IDH-C35]", "assay": "relative viability (nuclei count vs DMSO), 5 days (fraction); higher = more cells survive", "conditions": "2.53 µM", "summary_of_the_method": "as §1", "values": [{"cell line": "NCI-H1395", "relative viability": 0.877}, {"cell line": "201T", "relative viability": 1}, {"cell line": "NCI-H1915", "relative viability": 0.952}, {"cell line": "HCC-827", "relative viability": 0.991}, {"cell line": "LXF-289", "relative viability": 0.99}, {"cell line": "NCI-H23", "relative viability": 0.806}, {"cell line": "NCI-H1299", "relative viability": 0.991}, {"cell line": "NCI-H647", "relative viability": 0.936}, {"cell line": "CAL-12T", "relative viability": 1.05}, {"cell line": "NCI-H1651", "relative viability": 1}, {"cell line": "EPLC-272H", "relative viability": 0.76}, {"cell line": "NCI-H2228", "relative viability": 1.01}, {"cell line": "NCI-H1792", "relative viability": 0.969}, {"cell line": "NCI-H1355", "relative viability": 0.915}, {"cell line": "NCI-H3122", "relative viability": 0.985}, {"cell line": "NCI-H1437", "relative viability": 0.995}, {"cell line": "NCI-H1755", "relative viability": 1.03}, {"cell line": "NCI-H2023", "relative viability": 0.981}, {"cell line": "NCI-H1793", "relative viability": 0.859}, {"cell line": "PC-14", "relative viability": 0.997}, {"cell line": "EKVX", "relative viability": 0.861}, {"cell line": "LC-2-ad", "relative viability": 0.701}, {"cell line": "NCI-H1563", "relative viability": 0.981}, {"cell line": "NCI-H1944", "relative viability": 0.941}, {"cell line": "NCI-H1975", "relative viability": 1.05}, {"cell line": "RERF-LC-KJ", "relative viability": 1.01}, {"cell line": "ABC-1", "relative viability": 1.03}, {"cell line": "NCI-H358", "relative viability": 0.942}, {"cell line": "PC-3 [JPC-3]", "relative viability": 1.08}]}, {"compound": "Cc1ccccc1C(C(=O)NC1CCCCC1)N(C(=O)Cn1ccnc1C)c1cccc(F)c1 [IDH-C35]", "assay": "relative viability (nuclei count vs DMSO), 5 days (fraction); higher = more cells survive", "conditions": "8 µM", "summary_of_the_method": "as §1", "values": [{"cell line": "NCI-H1395", "relative viability": 0.882}, {"cell line": "201T", "relative viability": 0.958}, {"cell line": "NCI-H1915", "relative viability": 0.913}, {"cell line": "HCC-827", "relative viability": 1.02}, {"cell line": "LXF-289", "relative viability": 0.997}, {"cell line": "NCI-H23", "relative viability": 0.859}, {"cell line": "NCI-H1299", "relative viability": 1.01}, {"cell line": "NCI-H647", "relative viability": 0.949}, {"cell line": "CAL-12T", "relative viability": 0.979}, {"cell line": "NCI-H1651", "relative viability": 0.959}, {"cell line": "EPLC-272H", "relative viability": 0.882}, {"cell line": "NCI-H2228", "relative viability": 0.935}, {"cell line": "NCI-H1792", "relative viability": 1.13}, {"cell line": "NCI-H1355", "relative viability": 0.944}, {"cell line": "NCI-H3122", "relative viability": 0.973}, {"cell line": "NCI-H1437", "relative viability": 0.959}, {"cell line": "NCI-H1755", "relative viability": 1.01}, {"cell line": "NCI-H2023", "relative viability": 0.994}, {"cell line": "HCC-15", "relative viability": 0.925}, {"cell line": "NCI-H1793", "relative viability": 0.994}, {"cell line": "PC-14", "relative viability": 0.937}, {"cell line": "EKVX", "relative viability": 0.997}, {"cell line": "LC-2-ad", "relative viability": 0.898}, {"cell line": "NCI-H1563", "relative viability": 0.957}, {"cell line": "NCI-H1944", "relative viability": 0.976}, {"cell line": "NCI-H1975", "relative viability": 0.966}, {"cell line": "RERF-LC-KJ", "relative viability": 0.943}, {"cell line": "ABC-1", "relative viability": 0.992}, {"cell line": "NCI-H358", "relative viability": 0.919}, {"cell line": "NCI-H650", "relative viability": 0.962}]}]}
